Legend:
Assay type in all cases: biochemical, Lactiplantibacillus plantarum
[1] = tested on: T1, β-galactosidase produced by L. plantarum LP-15; test: o-nitrophenol release at […] nm, Lineweaver-Burk, […]; conditions: optimal conditions (pH 6.5, 42 °C); 50 mM phosphate buffer; partially purified enzyme; read-out: Value/Range
T1 construct: gene lacL; native enzyme from solid-state fermentation extract

[2] = target: T1, β-galactosidase produced by L. plantarum LP-15; test: product inhibition kinetics; conditions: competitive, inhibited substrate not told, partially purified enzyme, read-out: Value/Range
Description: product inhibition kinetics on β-galactosidase produced by L. plantarum LP-15

[3] = tested on: T1, β-galactosidase produced by L. plantarum LP-15; test: initial rate kinetics; lactose read-out not told; conditions: conditions not given; partially purified enzyme; read-out: Value/Range
Description: initial rate kinetics; lactose read-out not told on β-galactosidase produced by L. plantarum LP-15

O=[N+]([O-])c1ccccc1O[C@@H]1O[C@H](CO)[C@H](O)[C@H](O)[C@H]1O [ONPG, o-Nitrophenyl-β-D-galactopyranoside]
Km [1]: 2.8 ± 0.1 mM

OC[C@H]1OC(O)[C@H](O)[C@@H](O)[C@H]1O (stereo partly drawn) [galactose]
Ki [2]: 85 mM

OC[C@H]1O[C@@H](O[C@H]2[C@H](O)[C@@H](O)C(O)O[C@@H]2CO)[C@H](O)[C@@H](O)[C@H]1O (stereo partly drawn) [lactose]
Km [3]: 18.5 ± 0.5 mM
